Data: US7772180B2, “Hepatitis C virus inhibitors” (Bristol-Myers Squibb Company, priority 2006, dated 2010)
Where two headings read alike, the source gives them in different places.

What was measured:
[1] = biological target: T1, HCV NS3/4A protease complex, BMS strain (UniProt P27958, species not given/STRAIN_BMS); experiment: FRET peptide assay to monitor HCV NS3/4A proteolytic activity (BMS strain); assay type: biochemical, Hepatitis C virus (genotype 1a)
T1 construct: other: NS3/4A BMS strain; activity range class; numeric values, unit not given; said of H77 and J4L6S; fused on or other part: A three-lysine solubilising tail at the C-terminus of NS4A; A His tag is implied by the pET21b vector and Ni-NTA purification; Both are printed for the H77 and J4L6S constructs and apply to BMS by inference
T1 sequence (P27958 1027-1657, change not shown, one chain of several): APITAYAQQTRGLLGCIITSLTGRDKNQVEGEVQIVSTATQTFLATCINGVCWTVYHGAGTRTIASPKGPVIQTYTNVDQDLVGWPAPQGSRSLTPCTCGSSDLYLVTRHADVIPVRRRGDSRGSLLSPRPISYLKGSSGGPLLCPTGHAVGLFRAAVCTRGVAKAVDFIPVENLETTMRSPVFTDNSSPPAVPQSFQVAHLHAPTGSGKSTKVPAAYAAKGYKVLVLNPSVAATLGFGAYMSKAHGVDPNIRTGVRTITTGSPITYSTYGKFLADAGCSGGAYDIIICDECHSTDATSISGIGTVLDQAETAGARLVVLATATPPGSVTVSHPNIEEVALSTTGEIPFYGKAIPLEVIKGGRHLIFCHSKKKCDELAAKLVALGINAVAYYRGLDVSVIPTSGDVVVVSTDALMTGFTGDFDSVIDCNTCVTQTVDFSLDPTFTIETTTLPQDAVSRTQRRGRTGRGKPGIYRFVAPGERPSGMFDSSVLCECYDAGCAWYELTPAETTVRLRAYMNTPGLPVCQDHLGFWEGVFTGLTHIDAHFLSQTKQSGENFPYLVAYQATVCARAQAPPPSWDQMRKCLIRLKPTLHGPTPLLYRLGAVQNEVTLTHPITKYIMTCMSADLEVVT
Description: HCV NS3 protease complexes, derived from the BMS strain, H77 strain or J4L6S strain, were generated, as described below. These purified recombinant proteins were generated for use in a homogeneous assay (see below) to provide an indication of how effective compounds of the present disclosure would be in inhibiting HCV NS3 proteolytic activity.
Serum from an HCV-infected patient was obtained from Dr. T. Wright, San Francisco Hospital. An engineered full-length cDNA (compliment deoxyribonucleic acid) template of the HCV genome (BMS strain) was constructed from DNA fragments obtained by reverse transcription-PCR (RT-PCR) of serum RNA (ribonucleic acid) and using primers selected on the basis of homology between other genotype 1a strains. From the determination of the entire genome sequence, a genotype 1a was assigned to the HCV isolate according to the classification of Simmonds et al. (See P Simmonds, K A Rose, S Graham, S W Chan, F McOmish, B C Dow, E A Follett, P L Yap and H Marsden, J. Clin. Microbiol., 31(6), 1493-1503 (1993)). […] The infectious clones, H77 (1a genotype) and J4L6S (1b genotype) were obtained from R. Purcell (NIH) and the sequences are published in Genbank (AAB67036, see Yanagi, M., Purcell, R. H., Emerson, S. U. and Bukh, J. Proc. Natl. Acad. Sci. U.S.A. 94(16), 8738-8743 (1997); AF054247, see Yanagi, M., St Claire, M., Shapiro, M., Emerson, S. U., Purcell, R. H. and Bukh, J. Virology 244 (1), 161-172. (1998)).
NS3/4A protease complex-containing fractions were pooled and loaded on a desalting column Superdex-S200 pre-equilibrated with buffer D (25 mM HEPES, pH 7.5, 20% glycerol, 300 mM NaCl, 0.2% Triton X-100, 10 mM βME). Sample was loaded at a flow rate of 1 mL/min. NS3/4A protease complex-containing fractions were pooled and concentrated to approximately 0.5 mg/ml. The purity of the NS3/4A protease complexes, derived from the BMS, H77 and J4L6S strains, were judged to be greater than 90% by SDS-PAGE and mass spectrometry analyses. The enzyme was stored at −80° C., thawed on ice and diluted prior to use in assay buffer.
The purpose of this in vitro assay was to measure the inhibition of HCV NS3 protease complexes, derived from the BMS strain, H77 strain or J4L6S strain, as described above, by compounds of the present disclosure. This assay provides an indication of how effective compounds of the present disclosure would be in inhibiting HCV NS3 proteolytic activity.
In order to monitor HCV NS3/4A protease activity, an NS3/4A peptide substrate was used. The substrate was RET S1 (Resonance Energy Transfer Depsipeptide Substrate; AnaSpec, Inc. cat #22991) (FRET peptide), described by Taliani et al. in Anal. Biochem. 240(2):60-67 (1996). The sequence of this peptide is loosely based on the NS4A/NS4B natural cleavage site for the HCV NS3 protease except there is an ester linkage rather than an amide bond at the cleavage site. The peptide also contains a fluorescence donor, EDANS, near one end of the peptide and an acceptor, DABCYL, near the other end. The fluorescence of the peptide is quenched by […] resonance energy transfer (RET) between the donor and the acceptor, but as the NS3 protease cleaves the peptide the products are released from RET quenching and the fluorescence of the donor becomes apparent.
The peptide substrate was incubated with one of the three recombinant NS3/4A protease complexes, in the absence or presence of a compound of the present disclosure. The inhibitory effects of a compound were determined by monitoring the formation of fluorescent reaction product in real time using a Cytofluor Series 4000.
Assay buffer: 50 mM HEPES, pH 7.5; 0.15 M NaCl; 0.1% Triton; 15% Glycerol; 10 mM βME. Substrate: 2 μM final concentration (from a 2 mM stock solution in DMSO stored at −20° C.). HCV NS3/4A protease type 1a (1b), 2-3 nM final concentration (from a 5 μM stock solution in 25 mM HEPES, pH 7.5, 20% glycerol, 300 mM NaCl, 0.2% Triton-X100, 10 mM βME). […]

[2] = tested on: HCV replicon (strain 1b) in HUH-7 cells; experiment: HCV replicon FRET assay; assay type: cell-based, Hepatitis C virus; details: Hepatitis C virus, Huh-7, read-out: HCV Pro Replicon (EC50), HCV replicon cell assay
Description: An HCV replicon whole cell system was established as described by Lohmann V, Korner F, Koch J, Herian U, Theilmann L, Bartenschlager R., Science 285(5424): 110-3 (1999). This system enabled us to evaluate the effects of our HCV Protease compounds on HCV RNA replication. Briefly, using the HCV strain 1b sequence described in the Lohmann paper (Assession number: AJ238799), an HCV cDNA was synthesized by Operon Technologies, Inc. (Alameda, Calif.), and the full-length replicon was then assembled in plasmid pGem9zf(+) (Promega, Madison, Wis.) using standard molecular biology techniques. The replicon consists of (i) the HCV 5′ UTR fused to the first 12 amino acids of the capsid protein, (ii) the neomycin phosphotransferase gene (neo), (iii) the IRES from encephalomyocarditis virus (EMCV), and (iv) HCV NS3 to NS5B genes and the HCV 3′ UTR. Plasmid DNAs were linearized with ScaI and RNA transcripts were synthesized in vitro using the T7 MegaScript transcription kit (Ambion, Austin, Tex.) according to manufacturer's directions. In vitro transcripts of the cDNA were transfected into the human hepatoma cell line, HUH-7. […] Resulting cell lines were characterized for positive and negative strand RNA production and protein production over time.
The HCV replicon FRET assay was developed to monitor the inhibitory effects of compounds described in the disclosure on HCV viral replication. HUH-7 cells, constitutively expressing the HCV replicon, were grown in Dulbecco's Modified Eagle Media (DMEM) (Gibco-BRL) containing 10% Fetal calf serum (FCS) (Sigma) and 1 mg/ml G418 (Gibco-BRL). Cells were seeded the night before (1.5×10^4 cells/well) in 96-well tissue-culture sterile plates. Compound and no compound controls were prepared in DMEM containing 4% FCS, 1:100 Penicillin/Streptomysin (Gibco-BRL), 1:100 L-glutamine and 5% DMSO in the dilution plate (0.5% DMSO final concentration in the assay). Compound/DMSO mixes were added to the cells and incubated for 4 days at 37° C. After 4 days, cells were first assessed for cytotoxicity using alamar Blue (Trek Diagnotstic Systems) for a CC50 reading. The toxicity of compound (CC50) was determined by adding 1/10th volume of alamarBlue to the media incubating the cells. After 4 hours, the fluorescence signal from each well was read, with an excitation wavelength at 530 nm and an emission wavelength of 580 nm, using the Cytofluor Series 4000 (Perspective Biosystems). Plates were then rinsed thoroughly with Phosphate-Buffered Saline (PBS) (3 times 150 μl).

[3] = read-out: HCV Protease (IC50); NS3/4A BMS strain; activity range class

Structure (SMILES) | IC50 [1, 3] | other results
C=C[C@@H]1C[C@]1(NC(=O)[C@@H]1C[C@@H](Oc2ncc(OC)c3ccc(Cl)cc23)CN1C(=O)C(Nc1cccc(OC)c1)C(C)(C)C)C(=O)NS(=O)(=O)C1CC1 (single isomer, unassigned) [Compound 201A] |  | IC50 ([1]; read-out: HCV Protease (IC50); NS3/4A BMS strain; numeric values, unit inferred): 4 nM; EC50 ([2]; numeric values, unit inferred): 4.23 nM
C=C[C@@H]1C[C@]1(NC(=O)[C@@H]1C[C@@H](Oc2nccc3cc(OC)ccc23)CN1C(=O)[C@@H](Nc1cc(C)cc(C)n1)C(C)(C)C)C(=O)NS(=O)(=O)C1CC1 [14 first isomer, N-(4,6-dimethyl-2-pyridinyl)-3-methyl-L-valyl-(4R)—N-((1R,2S)-1-((cyclopropylsulfonyl)carbamoyl)-2-vinylcyclopropyl)-4-((6-methoxy-1-isoquinolinyl)oxy)-L-prolinamide] | 0.6 to 20 nM | EC50 ([2]; activity range class): 3 to 100 nM
C=C[C@@H]1C[C@]1(NC(=O)[C@@H]1C[C@@H](Oc2nc(N(C)C)cc3cc(OC)ccc23)CN1C(=O)C(Nc1cc(C)cc(C)n1)C(C)C)C(=O)NS(=O)(=O)C1CC1 (stereo partly drawn) [Compound 17, N-(4,6-dimethyl-2-pyridinyl)valyl-(4R)—N-((1R,2S)-1-((cyclopropylsulfonyl)carbamoyl)-2-vinylcyclopropyl)-4-((3-(dimethylamino)-6-methoxy-1-isoquinolinyl)oxy)-L-prolinamide] | 0.6 to 20 nM | EC50 ([2]; activity range class): 3 to 100 nM
C=C[C@@H]1C[C@]1(NC(=O)[C@@H]1C[C@@H](Oc2ncc(OC)c3ccc(Cl)cc23)CN1C(=O)[C@H](Nc1cccc(F)c1F)C(C)(C)C)C(=O)NS(=O)(=O)C1CC1 [208 second isomer, N-(2,3-difluorophenyl)-3-methyl-D-valyl-(4R)-4-((7-chloro-4-methoxy-1-isoquinolinyl)oxy)-N-((1R,2S)-1-((cyclopropylsulfonyl)carbamoyl)-2-vinylcyclopropyl)-L-prolinamide] | > 200 nM | 
C=C[C@@H]1C[C@]1(NC(=O)[C@@H]1C[C@@H](Oc2ncc(OC)c3ccc(Cl)cc23)CN1C(=O)[C@H](Nc1cccc(C(=O)NC(C)(C)c2ccccc2)c1)C(C)(C)C)C(=O)NS(=O)(=O)C1CC1 (single isomer, unassigned; isomer 3) [216 second isomer] |  | IC50 ([1]; NS3/4A BMS strain; activity range class; read-out: HCV Protease (IC50)): > 200 nM
C=C[C@@H]1C[C@]1(NC(=O)[C@@H]1C[C@@H](Oc2ncc(OC)c3ccc(Cl)cc23)CN1C(=O)C(Nc1ccc(OC(F)F)nc1)C(C)(C)C)C(=O)NS(=O)(=O)C1CC1 (single isomer, unassigned) [409 - second isomer] | > 200 nM | 
C=C[C@@H]1C[C@]1(NC(=O)[C@@H]1C[C@@H](Oc2ncc(OC)c3ccc(Cl)cc23)CN1C(=O)C(Nc1ccc(OC(F)F)nc1)C(C)(C)C)C(=O)NS(=O)(=O)C1CC1 (single isomer, unassigned) [409 - first isomer] | 20 to 200 nM | 
C=C[C@@H]1C[C@]1(NC(=O)[C@@H]1C[C@@H](Oc2ncc(OC)c3ccc(Cl)cc23)CN1C(=O)[C@H](Nc1ccc(C(N)=O)cc1)C(C)(C)C)C(=O)NS(=O)(=O)C1CC1 [226 second isomer, N-(4-carbamoylphenyl)-3-methyl-D-valyl-(4R)-4-((7-chloro-4-methoxy-1-isoquinolinyl)oxy)-N-((1R,2S)-1-((cyclopropylsulfonyl)carbamoyl)-2-vinylcyclopropyl)-L-prolinamide] | > 200 nM | 
C=C[C@@H]1C[C@]1(NC(=O)[C@@H]1C[C@@H](Oc2ncc(OC)c3ccc(Cl)cc23)CN1C(=O)[C@H](Nc1cccc(C(N)=O)c1)C(C)(C)C)C(=O)NS(=O)(=O)C1CC1 [217 second isomer, N-(3-carbamoylphenyl)-3-methyl-D-valyl-(4R)-4-((7-chloro-4-methoxy-1-isoquinolinyl)oxy)-N-((1R,2S)-1-((cyclopropylsulfonyl)carbamoyl)-2-vinylcyclopropyl)-L-prolinamide] | > 200 nM | 
C=C[C@@H]1C[C@]1(NC(=O)[C@@H]1C[C@@H](Oc2nc3c(c4cc(OC)ccc24)OCCN3C)CN1C(=O)[C@@H](Nc1ccc(F)c(F)c1)C(C)(C)C)C(=O)NS(=O)(=O)C1CC1 [235 first isomer, N-(3,4-difluorophenyl)-3-methyl-L-valyl-(4R)—N-((1R,2S)-1-((cyclopropylsulfonyl)carbamoyl)-2-vinylcyclopropyl)-4-((9-methoxy-4-methyl-3,4-dihydro-2H-[1,4]oxazino[3,2-c]isoquinolin-6-yl)oxy)-L-prolinamide] | > 200 nM | 
C=C[C@@H]1C[C@]1(NC(=O)[C@@H]1C[C@@H](Oc2ncc(OC)c3ccc(Cl)cc23)CN1C(=O)[C@H](Nc1ccc(S(=O)(=O)NC(C)(C)C)cc1)C(C)(C)C)C(=O)NS(=O)(=O)C1CC1 [214 second isomer, N-(4-(tert-butylsulfamoyl)phenyl)-3-methyl-D-valyl-(4R)-4-((7-chloro-4-methoxy-1-isoquinolinyl)oxy)-N-((1R,2S)-1-((cyclopropylsulfonyl)carbamoyl)-2-vinylcyclopropyl)-L-prolinamide] | > 200 nM | 
